In PubChem BioAssay AID248 (DTP/NCI, 2004):
“And” between values parts separate entries of the source, which are not always exact repeats. Identical values can stand only once. Toxic doses and inconclusive results are not listed. Rule as the data show it: active = T/C of 150% or more; inactive = T/C below 125%.

System: L1210 leukemia ip in BDF1 mice, survival T/C
Assay: NCI In Vivo Anticancer Drug Screen. Data for tumor model L1210 Leukemia (intraperitoneal) in B6D2F1 (BDF1) mice
Details: endpoint: mean survival time, higher = longer survival
In short: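 Transplantable tumor model; survival measured in treated vs vehicle control mice. Value = treated/control.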

[1] = dose: 100.0 mg/kg/injection, schedule: Q01DX009 (ip), vehicle: Klucel (hydroxypropylcellulose) (HPC)
[2] = dose: 100.0 mg/kg/injection, schedule: Q04DX003 (ip), vehicle: Klucel (hydroxypropylcellulose) (HPC)
[3] = dose: 200.0 mg/kg/injection, schedule: Q01DX009 (ip), vehicle: Klucel (hydroxypropylcellulose) (HPC)
[4] = dose: 200.0 mg/kg/injection, schedule: Q04DX003 (ip), vehicle: Klucel (hydroxypropylcellulose) (HPC)
[5] = dose: 400.0 mg/kg/injection, schedule: Q04DX003 (ip), vehicle: Klucel (hydroxypropylcellulose) (HPC)
[6] = dose: 100.0 mg/kg/injection, schedule: Q01DX001 (ip), vehicle: saline
[7] = dose: 200.0 mg/kg/injection, schedule: Q01DX001 (ip), vehicle: saline
[8] = dose: 400.0 mg/kg/injection, schedule: Q01DX001 (ip), vehicle: saline
[9] = dose: 400.0 mg/kg/injection, schedule: Q01DX009 (ip), vehicle: Klucel (hydroxypropylcellulose) (HPC)
[10] = dose: 50.0 mg/kg/injection, schedule: Q01DX001 (ip), vehicle: saline
[11] = dose: 100.0 mg/kg/injection, schedule: Q01DX009 (ip), vehicle: saline with Tween-80
[12] = dose: 200.0 mg/kg/injection, schedule: Q01DX009 (ip), vehicle: saline with Tween-80
[13] = dose: 75.0 mg/kg/injection, schedule: Q01DX001 (ip), vehicle: saline
[14] = dose: 150.0 mg/kg/injection, schedule: Q01DX001 (ip), vehicle: saline
[15] = dose: 100.0 mg/kg/injection, schedule: Q01DX001 (ip), vehicle: other
[16] = dose: 400.0 mg/kg/injection, schedule: Q01DX009 (ip), vehicle: saline with Tween-80
[17] = dose: 100.0 mg/kg/injection, schedule: Q04DX003 (ip), vehicle: saline with Tween-80
[18] = dose: 200.0 mg/kg/injection, schedule: Q04DX003 (ip), vehicle: saline with Tween-80

Measured: T/C

CNC(=S)N/N=C(\C)CSC/C(C)=N/NC(=S)NC
inactive: dose: 1.56 mg/kg/injection, schedule: Q03HX024 (ip), vehicle: Klucel (hydroxypropylcellulose) (HPC) 97 % of control | dose: 3.12 mg/kg/injection, schedule: Q01DX009 (ip), vehicle: Klucel (hydroxypropylcellulose) (HPC) 95 % of control | dose: 3.12 mg/kg/injection, schedule: Q03HX024 (ip), vehicle: Klucel (hydroxypropylcellulose) (HPC) 93 % of control | dose: 6.25 mg/kg/injection, schedule: Q01DX009 (ip), vehicle: Klucel (hydroxypropylcellulose) (HPC) 92 % of control | dose: 6.25 mg/kg/injection, schedule: Q03HX024 (ip), vehicle: Klucel (hydroxypropylcellulose) (HPC) 92 % of control | dose: 6.25 mg/kg/injection, schedule: Q04DX003 (ip), vehicle: Klucel (hydroxypropylcellulose) (HPC) 95 % of control | dose: 12.5 mg/kg/injection, schedule: Q01DX009 (ip), vehicle: Klucel (hydroxypropylcellulose) (HPC) 93 % of control | dose: 12.5 mg/kg/injection, schedule: Q03HX024 (ip), vehicle: Klucel (hydroxypropylcellulose) (HPC) 95 % of control | dose: 12.5 mg/kg/injection, schedule: Q04DX003 (ip), vehicle: Klucel (hydroxypropylcellulose) (HPC) 102 % of control | dose: 25.0 mg/kg/injection, schedule: Q01DX009 (ip), vehicle: Klucel (hydroxypropylcellulose) (HPC) 109 % of control | dose: 25.0 mg/kg/injection, schedule: Q03HX024 (ip), vehicle: Klucel (hydroxypropylcellulose) (HPC) 103 % of control | dose: 25.0 mg/kg/injection, schedule: Q04DX003 (ip), vehicle: Klucel (hydroxypropylcellulose) (HPC) 97 % of control | dose: 30.0 mg/kg/injection, schedule: Q04DX003 (ip), vehicle: saline 98 % of control | dose: 50.0 mg/kg/injection, schedule: Q01DX009 (ip), vehicle: Klucel (hydroxypropylcellulose) (HPC) 104 % of control | dose: 50.0 mg/kg/injection, schedule: Q03HX024 (ip), vehicle: Klucel (hydroxypropylcellulose) (HPC) 106 % of control | dose: 60.0 mg/kg/injection, schedule: Q04DX003 (ip), vehicle: saline 98 % of control | [1] 108 % of control | dose: 100.0 mg/kg/injection, schedule: Q03HX024 (ip), vehicle: Klucel (hydroxypropylcellulose) (HPC) 116 % of control | [2] 92 % of control | dose: 120.0 mg/kg/injection, schedule: Q04DX003 (ip), vehicle: saline 101 % of control | [3] 96 % of control | [4] 107 % of control | [5] 98 % of control

CCCCCCC(C)OC(=O)CCSCCC(=O)OC(C)CCCCCC (centres undefined)
inactive: [6] 98 % of control | [7] 94 % of control | [8] 86 % of control

O=c1[nH]cnc2ccccc12
inactive: [1] 107 % of control | [3] 93 % of control | [9] 103 % of control

CCOc1ccn(C)c(=O)n1
inactive: [10] 90 % of control | [6] 95 % of control

O=S(=O)(/N=[N+](\[O-])c1ccccc1)c1ccccc1
inactive: [6] 103 % of control | [7] 100 % of control | [8] 103 % of control

CNC(=O)Oc1cccc(NC(=O)C=C(C)C)c1
inactive: [11] 91 % of control | [12] 89 % of control

CCCCn1c(N)cc(=O)[nH]c1=S
inactive: [10] 100 % of control | [6] 93 % of control | [7] 106 % of control | [8] 100 % of control

CC1CC(=O)N(Cl)C(=O)N1Cl (centres undefined)
inactive: [13] 102 % of control | [14] 106 % of control

CC(=O)OC1(C(C)(C)C)C(=O)C(=[N+]=[N-])C(O)(C(C)(C)C)C(=O)C1=[N+]=[N-] (centres undefined)
inactive: [15] 97 % of control | dose: 200.0 mg/kg/injection, schedule: Q01DX001 (ip), vehicle: other 97 % of control | dose: 400.0 mg/kg/injection, schedule: Q01DX001 (ip), vehicle: other 97 % of control

CCC1=C(CC2NCCc3ccccc32)CC2c3cc(OC)c(OC)cc3CCN2C1 (centres undefined)
inactive: dose: 4.0 mg/kg/injection, schedule: Q04DX003 (ip), vehicle: water 103 % of control | dose: 8.0 mg/kg/injection, schedule: Q04DX003 (ip), vehicle: water 103 % of control | dose: 16.0 mg/kg/injection, schedule: Q04DX003 (ip), vehicle: water 102 % of control | dose: 32.0 mg/kg/injection, schedule: Q04DX003 (ip), vehicle: water 102 % of control | dose: 64.0 mg/kg/injection, schedule: Q04DX003 (ip), vehicle: water 102 % of control | [13] 95 % of control and 103 % of control | [14] 100 % of control and 103 % of control | dose: 300.0 mg/kg/injection, schedule: Q01DX001 (ip), vehicle: saline 100 % of control

COc1ccc2c(c1OC)CC[N+]1=C3CCCCC3=C(N)CC21 (centres undefined)
inactive: dose: 100.0 mg/kg/injection, schedule: Q01DX001 (ip), vehicle: saline with Tween-80 97 % of control | dose: 200.0 mg/kg/injection, schedule: Q01DX001 (ip), vehicle: saline with Tween-80 97 % of control | dose: 400.0 mg/kg/injection, schedule: Q01DX001 (ip), vehicle: saline with Tween-80 96 % of control

CC(C)(C)C(=O)Nc1ccc(Cl)cc1C(=O)c1ccccc1
inactive: [11] 92 % of control and 110 % of control | dose: 100.0 mg/kg/injection, schedule: Q04DX002 (ip), vehicle: saline with Tween-80 93 % of control and 98 % of control | [12] 96 % of control and 100 % of control | dose: 200.0 mg/kg/injection, schedule: Q04DX002 (ip), vehicle: saline with Tween-80 93 % of control and 107 % of control | [16] 92 % of control and 95 % of control | dose: 400.0 mg/kg/injection, schedule: Q04DX002 (ip), vehicle: saline with Tween-80 107 % of control and 87 % of control

NC(=S)c1cccc(S(N)(=O)=O)c1
inactive: dose: 100.0 mg/kg/injection, schedule: Q01DX001 (ip), vehicle: Klucel (hydroxypropylcellulose) (HPC) 100 % of control | dose: 200.0 mg/kg/injection, schedule: Q01DX001 (ip), vehicle: Klucel (hydroxypropylcellulose) (HPC) 103 % of control | dose: 400.0 mg/kg/injection, schedule: Q01DX001 (ip), vehicle: Klucel (hydroxypropylcellulose) (HPC) 103 % of control

O=C(CCl)COP(=O)(O)O
inactive: dose: 6.25 mg/kg/injection, schedule: Q01DX009 (ip), vehicle: other 102 % of control | dose: 12.5 mg/kg/injection, schedule: Q01DX001 (ip), vehicle: other 102 % of control | dose: 12.5 mg/kg/injection, schedule: Q01DX009 (ip), vehicle: other 91 % of control | dose: 12.5 mg/kg/injection, schedule: Q04DX003 (ip), vehicle: other 91 % of control | dose: 25.0 mg/kg/injection, schedule: Q01DX001 (ip), vehicle: other 91 % of control | dose: 25.0 mg/kg/injection, schedule: Q01DX009 (ip), vehicle: other 101 % of control | dose: 25.0 mg/kg/injection, schedule: Q04DX003 (ip), vehicle: other 88 % of control | dose: 50.0 mg/kg/injection, schedule: Q01DX001 (ip), vehicle: other 96 % of control | dose: 50.0 mg/kg/injection, schedule: Q01DX009 (ip), vehicle: other 114 % of control | dose: 50.0 mg/kg/injection, schedule: Q04DX003 (ip), vehicle: other 93 % of control | [15] 89 % of control | dose: 100.0 mg/kg/injection, schedule: Q04DX003 (ip), vehicle: other 106 % of control

COc1cc(/C=C\C(=O)c2cccc([N+](=O)[O-])c2)cc(OC)c1OC
inactive: dose: 100.0 mg/kg/injection, schedule: Q04DX002 (ip), vehicle: Klucel (hydroxypropylcellulose) (HPC) 96 % of control | dose: 200.0 mg/kg/injection, schedule: Q04DX002 (ip), vehicle: Klucel (hydroxypropylcellulose) (HPC) 89 % of control | dose: 400.0 mg/kg/injection, schedule: Q04DX002 (ip), vehicle: Klucel (hydroxypropylcellulose) (HPC) 100 % of control

O=C1CCCC/C1=C/c1ccccc1Cl
inactive: [1] 97 % of control | [2] 104 % of control | [3] 105 % of control | [4] 104 % of control | [9] 100 % of control | [5] 97 % of control

CCCCOC(=O)c1ccccn1
inactive: [17] 99 % of control | [18] 94 % of control

CCCNC(=O)Nc1cc(Cl)ccc1OC
inactive: [11] 100 % of control | [17] 95 % of control | [12] 94 % of control | [18] 103 % of control | [16] 96 % of control | dose: 400.0 mg/kg/injection, schedule: Q04DX003 (ip), vehicle: saline with Tween-80 94 % of control
